Measured values from paper PMC12169104, “Towards the development of supramolecular self-associating amphiphiles as antibiofilm agents against Pseudomonas aeruginosa and Candida albicans biofilms” (Journal of Materials Chemistry. B, 2025).
Converted amounts (≈) assume the structure as drawn.

Tests used:
[1] = Kinetic solubility determination in PBS pH 7.4; type: physicochemical; settings: phosphate buffered saline, aqueous buffer, kinetic from dmso stock, PBS pH 7.4, 300 µM nominal, 2 hours at 25°C
Description: (§1) Section S5: In vitro and in vivo studies
(§2) These studies were performed by Contract Research Organisation (CRO) Pharmaron. The methodology provided within the ESI is published within the express permission of this organisation.
(§3) The percentage of a compound recovered during the analysis process should be 100 %; any deviation from this value indicates experimental limitations such as unintended potential non-specific binding events to experimental equipment, solubility issues, etc.
(§4) In vitro Absorption, Distribution and Metabolism studies methods: […]
(§5) The ionisation
(§6) Kinetic Solubility Determination in PBS pH 7.4:
The stock solutions of test and control compounds were prepared in DMSO at 10 mM. From this a 300 µM solution was prepared in duplicate in 100 mM Phosphate Buffered Saline (PBS, pH 7.4 ± 0.1). These solutions were then shaken at 1100rpm for 2 hours at 25°C. Following incubation, the samples were filtered using a vacuum manifold. The filtrate was analysed and quantified against a standard of known concentration using liquid chromatography mass -spectrometry (LC -MS/MS). […]
coupled to a Sciex 4500 mass spectrometer (AB Inc., Illinois) Separation of compounds was achieved using an XSelect HSS T3 column (2.5µm, 50 x 2.1 mm) (Waters Ltd., Wilmslow) at a temperature of 40°C and a binary mobile phase gradient at a flow rate of 0.8 mL/min. […]

[2] = Metabolic stability in liver microsomes; type: in vitro ADME, mouse
Description: as §1, §2, §3, §4, §5, §6
The stock solutions of test and control compounds were prepared in DMSO at 10 mM. From this a 300 µM solution was prepared in duplicate in 100 mM Phosphate Buffered Saline (PBS, pH 7.4 ± 0.1). These solutions were then shaken at 1100rpm for 2 hours at 25°C. […]
Metabolic Stability in Rat, Mouse and Human Liver Microsomes :
The metabolic stability of compounds at a concentration of 1 µM, in rat, mouse and human liver microsomes (BD Gentest, Franklin Lakes NJ) was measured following incubation with hepatic microsomes (0.5 mg of protein / mL) in the presence and absence of cofa ctor (NADPH) at 37 °C.
Aliquots of each incubation were removed at 0.5, 5, 15, 30 and 60 minutes. The reaction was stopped by the addition of cold acetonitrile containing analytical internal standard (IS). […]

[3] = Protein binding in human plasma by equilibrium dialysis; type: in vitro ADME
Description: as §1, §2, §3
In vitro Absorption, Distribution and Metabolism studies methods:
Protein Binding measurements in human plasma by using equilibrium dialysis:
The fraction unbound in human plasma (P-KB, Ltd People’s hospital of Shandong) was measured using 96-well Equilibrium Dialysis Plate (HTDialysis LLC, Gales Ferry, CT). Human plasma containing 5 µM test compound was dialysed against dialysis buffer (PBS, pH 7.4) with initial samples taken to allow for assessment of plasma stability and recovery before the plate was incubated for 6 hours at 37°C at 5%
CO2. Samples were removed at 6 hours, and all samples were matrix matched and quenched with acetonitrile containing internal standard. Samples were centrifuged at 3,220g for 30 minutes to precipitate protein and enable sampling of supernatant prior to appropr iate dilution for liquid chromatography mass -spectrometry (LC -MS/MS) analysis.
Samples were analysed using a Shimadzu Nexera LC Binary Gradient LC -30AD (Shimadzu Inc, Kyoto), coupled to a Sciex 6500+ (AB Inc., Illinois). Separation was achieved using a XSelect HSS T3 (2.5µm, 2.1 x 50 mm) (Waters Ltd., Wilmslow) column at a temperature of 40°C and a binary mobile phase gradient at a flow rate of 0.8 mL/min. Initial LC conditions comprised of 95% solvent A (0.1% formic acid in water), 5% solvent B (0.1% formic acid in acetonitrile); this was ramped to 98% B at 0.5 min, held for 0.4 min and then immediately returned to initial conditions. Sample analysis was by electrospray ionisation in combined with multiple reaction monitoring in positive ionisation mode. The ionisation […]

solubility at 2 h [1]: 273 µM (≈ 85.8 µg/mL) | half-life at 1 µM ([2]; liver microsomes, mouse microsomes, 1 µM, read-out: In vitro T1/2): > 3.08 h | Hepatic Extraction Ratio (ER) ([2]; mouse): < 0.26 | % Stability ([3]; human plasma, 6 hours): 99.5% | recovery at 6 h, 5 µM ([3]; human, plasma, pH 7.4, SSA recovered from the assay after 6 hours): 102% | fraction unbound at 6 h, 5 µM ([3]; pH 7.4, human plasma proteins, 5 µM, 6 hours incubation at 37 °C, read-out: % Bound (converted)): 0.076
SMILES: O=C(O)CNc1c(Nc2ccc(C(F)(F)F)cc2)c(=O)c1=O [SSA 5]
